The values below come from ChEMBL document CHEMBL3832060, “DailyMed|setid=39945812-f776-4b13-8199-e846e37aa101 | TRAMADOL HYDROCHLORIDE AND ACETAMINOPHEN - tramadol hydrochloride and acetaminophen tablet, film coated|Cadila Healthcare Limited”.

A short description of this series: clinical. The conditions noted are these: human, in vivo, po.

Description: Evalaution of pharmacokinetic parameters of Acetaminophen following single oral co-administration of 325 mg Acetaminophen tablets with 37.5 mg Tramadol.

As to `CC(=O)Nc1ccc(O)cc1` [ACETAMINOPHEN], the highest concentration (Cmax) worked out at 4200 ng/mL, the Tmax was 54 min and the half-life was 150 min.

A word on the Cmax: it is the highest concentration seen after dosing. Broadly, the Tmax is the time at which the peak concentration occurs. Usually half-life stands for how long it takes for the measured level to halve.
